Data reported in patent publication US20050228016A1, “TETRAHYDROQUINOLINES FOR MODULATING THE EXPRESSION OF EXOGENOUS GENES VIA AN ECDYSONE RECEPTOR COMPLEX” (priority 2002, published 2005).

target: T1, Gal4DBD/AaEcR (DEF) (Aedes aegypti, UniProt P49880); experiment: cell-based; assay type: cell-based; conditions: 33 μM; 3T3 cells; 48 h; average of two wells
T1 construct: The wildtype D, E, and F domains from mosquito Aedes aegypti EcR; expressed in transfected cells; host or cells: 3T3 cells
Description: 3T3 cells were trypsinized and plated at 2.5×10^3 cells/well on a 96-well plate. After incubation for 24 h at 37° C. under 5% CO2, cells were transfected with the Gal4DBD/AaEcR (DEF) gene expression cassette and the reporter plasmid, pFRLuc, containing a 5× GAL4 response element and the firefly luciferase gene in serum free media using Superfect (Qiagen). After transfection for 4 h at 37° C., the cells were treated with ligand in serum media. […] Single dose testing was performed at 33 μM.

T1 sequence (P28704 286-520 A311G/G315S/G445S/I449V): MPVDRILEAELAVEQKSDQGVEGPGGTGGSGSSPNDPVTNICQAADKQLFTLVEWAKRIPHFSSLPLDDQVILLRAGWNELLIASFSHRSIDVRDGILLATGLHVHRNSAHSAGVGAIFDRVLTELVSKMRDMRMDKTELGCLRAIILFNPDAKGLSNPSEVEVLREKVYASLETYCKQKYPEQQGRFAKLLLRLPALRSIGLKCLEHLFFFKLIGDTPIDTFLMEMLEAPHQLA
T1 sequence (P49880 405-776): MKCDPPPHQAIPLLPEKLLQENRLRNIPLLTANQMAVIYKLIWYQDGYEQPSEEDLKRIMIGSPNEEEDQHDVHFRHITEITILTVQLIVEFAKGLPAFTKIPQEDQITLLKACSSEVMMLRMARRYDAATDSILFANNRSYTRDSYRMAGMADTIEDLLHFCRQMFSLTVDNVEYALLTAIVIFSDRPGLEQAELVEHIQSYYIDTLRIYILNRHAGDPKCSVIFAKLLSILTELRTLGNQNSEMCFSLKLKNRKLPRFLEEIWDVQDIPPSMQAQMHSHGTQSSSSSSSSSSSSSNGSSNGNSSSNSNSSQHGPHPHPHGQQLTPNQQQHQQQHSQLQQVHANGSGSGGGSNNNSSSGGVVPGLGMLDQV

Point of comparison: `CC1CC(Nc2ccccc2)c2ccccc2N1C(=O)c1cccs1` (stereo not drawn) [Compound I-122], “Fold Induction Average, AA_3T3V1 Assay 33 μM” value 5 fold. Against it:
- Cc1ccc(C(=O)N2c3ccccc3C(Nc3cccc(C)c3)CC2C)cc1 (mixture of isomers) [Compound I-44] — higher, 26 fold
- COc1cccc(NC2CC(C)N(C(=O)c3ccc(C)cc3)c3ccccc32)c1 (mixture of isomers) [Compound I-46] — higher, 8 fold
- Cc1ccc(C(=O)N2c3cc(Cl)ccc3C(Nc3ccc(F)cc3)CC2C)cc1F (mixture of isomers) [Compound I-48] — higher, 19 fold
- CCCCCCCC(=O)N1c2ccccc2[C@@H](Nc2ccccc2)C[C@@H]1C (relative stereo) [Compound I-2] — higher, 49 fold
- CCCCC(=O)N1c2ccccc2[C@@H](Nc2ccccc2)C[C@@H]1C (relative stereo) [Compound I-3] — higher, 252 fold
- C[C@H]1C[C@@H](Nc2ccccc2)c2ccccc2N1C(=O)c1ccc(F)c(F)c1 (relative stereo) [Compound I-18] — higher, 83 fold
- C[C@H]1C[C@@H](Nc2ccccc2)c2ccccc2N1C(=O)c1ccc(C(F)(F)F)c(F)c1 (relative stereo) [Compound I-20] — higher, 47 fold
- C[C@H]1C[C@@H](Nc2ccccc2)c2ccccc2N1C(=O)c1ccc(Cl)cc1 (relative stereo) [Compound I-29] — higher, 61 fold
- COC(=O)c1ccc(C(=O)N2c3ccccc3[C@H](Nc3ccccc3)C[C@@H]2C)cc1 (relative stereo) [Compound I-30] — higher, 9 fold
- CCCCCCCCC(=O)N1c2ccccc2[C@@H](Nc2ccccc2)C[C@@H]1C (relative stereo) [Compound I-127] — higher, 22 fold
- Cc1ccc(N[C@H]2C[C@H](C)N(C(=O)Nc3cccc(Cl)c3)c3ccc(C)cc32)cc1 (relative stereo) [Compound I-218] — higher, 6 fold
- Cc1ccc(NC(=O)N2c3ccc(C)cc3[C@@H](Nc3ccc(C)cc3)C[C@@H]2C)cc1 (relative stereo) [Compound I-219] — lower, 3 fold
- C[C@H]1C[C@H](Nc2ccc(F)cc2)c2cc(F)ccc2N1C(=O)Nc1ccccc1 (relative stereo) [Compound I-221] — higher, 1027 fold
- C[C@H]1C[C@H](Nc2ccc(F)cc2)c2cc(F)ccc2N1C(=O)Nc1ccc(Cl)cc1 (relative stereo) [Compound I-222] — higher, 939 fold
- C[C@H]1C[C@H](Nc2ccc(F)cc2)c2cc(F)ccc2N1C(=O)Nc1cccc(Cl)c1 (relative stereo) [Compound I-223] — higher, 1414 fold
- Cc1ccc(NC(=O)N2c3ccc(F)cc3[C@@H](Nc3ccc(F)cc3)C[C@@H]2C)cc1 (relative stereo) [Compound I-224] — higher, 1245 fold
- Cc1cccc(NC(=O)N2c3ccc(F)cc3[C@@H](Nc3ccc(F)cc3)C[C@@H]2C)c1 (relative stereo) [Compound I-225] — higher, 1561 fold
- Cc1ccc(NC2CC(C)N(C(=O)c3ccc(Cl)cc3)c3ccc(C)cc32)cc1 (stereo not drawn) [Compound I-32] — lower, 1 fold
- Cc1ccc(NC2CC(C)N(C(=O)c3ccc(C(F)(F)F)c(F)c3)c3ccc(C)cc32)cc1 (stereo not drawn) [Compound I-49] — lower, 3 fold
- Cc1ccc(NC2CC(C)N(C(=O)c3ccccc3F)c3ccc(C)cc32)cc1 (stereo not drawn) [Compound I-51] — lower, 4 fold
- Cc1ccc(NC2CC(C)N(C(=O)c3ccccc3C)c3ccc(C)cc32)cc1 (stereo not drawn) [Compound I-52] — higher, 19 fold
- CCc1ccc(C(=O)N2c3ccccc3C(Nc3ccccc3)CC2C)cc1 (stereo not drawn) [Compound I-59] — lower, 4 fold
- Cc1ccc(NC2CC(C)N(C(=O)c3ccc(C)cc3)c3ccc(C)cc32)cc1 (stereo not drawn) [Compound I-99] — lower, 2 fold
- Cc1ccc(NC2CC(C)N(C(=O)c3ccccc3)c3ccc(C)cc32)cc1 (stereo not drawn) [Compound I-100] — lower, 2 fold
- CCc1c(OC)cccc1C(=O)N1c2ccc(C)cc2C(Nc2ccc(C)cc2)CC1C (stereo not drawn) [Compound I-112] — higher, 194 fold
- CC1CC(Nc2ccc(F)cc2)c2cc(F)ccc2N1C(=O)c1ccno1 (stereo not drawn) [Compound I-114] — higher, 1421 fold
- CC1CC(Nc2ccc(F)cc2)c2cc(F)ccc2N1C(=O)c1ccc(Cl)c(F)c1 (stereo not drawn) [Compound I-115] — higher, 643 fold
- CC1CC(Nc2ccc(F)cc2)c2cc(F)ccc2N1C(=O)c1ccnc(Cl)c1 (stereo not drawn) [Compound I-116] — higher, 1100 fold
- CCc1c(OC)cccc1C(=O)N1c2ccc(F)cc2C(Nc2ccc(F)cc2)CC1C (stereo not drawn) [Compound I-117] — higher, 1256 fold
- CC1CC(Nc2ccccc2)c2ccccc2N1C(=O)C=Cc1ccco1 (stereo not drawn) [Compound I-121] — higher, 81 fold
- CC(=O)N(c1ccccc1)C1CC(C)N(C(=O)c2ccc(C(C)(C)C)cc2)c2ccccc21 (stereo not drawn) [Compound I-123] — lower, 1 fold
- CC(=O)N1c2ccccc2C(N(C(=O)c2ccc(F)cc2)c2ccccc2)CC1C (stereo not drawn) [Compound I-128] — lower, 1 fold
- CC1CC(Nc2ccccc2)c2ccccc2N1C(=O)COc1ccccc1Cl (stereo not drawn) [Compound I-129] — lower, 1 fold
- CC1CC(Nc2ccccc2)c2ccccc2N1C(=O)Cc1ccccc1 (stereo not drawn) [Compound I-130] — lower, 1 fold
- CC(=O)N1c2ccccc2C(N(C(=O)c2ccc(C)cc2)c2ccccc2)CC1C (stereo not drawn) [Compound I-132] — lower, 1 fold
- CCCCCC(=O)N(c1ccccc1)C1CC(C)N(C(=O)c2cccc(OC)c2)c2ccccc21 (stereo not drawn) [Compound I-133] — lower, 1 fold
- CC1CC(N(C(=O)c2cccc(F)c2)c2ccccc2)c2ccccc2N1C(=O)c1cccc(F)c1 (stereo not drawn) [Compound I-136] — lower, 1 fold
- CC1CC(Nc2ccccc2)c2ccccc2N1C(=O)c1ccco1 (stereo not drawn) [Compound I-139] — lower, 1 fold
- CCOC(=O)C(=O)N1c2ccccc2C(N(C(=O)C(=O)OCC)c2ccccc2)CC1C (stereo not drawn) [Compound I-145] — higher, 47 fold
- COc1ccc(C=CC(=O)N2c3ccccc3C(N(C(C)=O)c3ccccc3)CC2C)cc1 (stereo not drawn) [Compound I-150] — lower, 1 fold
- COc1ccc(C(=O)N2c3ccccc3C(N(C(=O)c3ccc(OC)cc3)c3ccccc3)CC2C)cc1 (stereo not drawn) [Compound I-153] — lower, 1 fold
- CCCc1ccc(C(=O)N2c3c(C)cccc3C(Nc3ccccc3C)CC2C)cc1 (stereo not drawn) [Compound I-157] — lower, 1 fold
- Cc1cccc(C(=O)N2c3ccccc3C(N(C(=O)c3cccc(C)c3)c3ccccc3)CC2C)c1 (stereo not drawn) [Compound I-164] — lower, 1 fold

same assay, conditions: NIH3T3, read-out: Fold Induction Average, AA_3T3V1 Assay 33 μM

Work on `Cc1ccc(NC(=O)N2c3ccccc3[C@@H](Nc3ccccc3)C[C@H]2C)cc1` (relative stereo) [Compound I-214, cis-2-methyl-1-(4-methylphenylaminocarbonyl)-4-(4-phenylamino)-1,2,3,4-tetrahydroquinoline] yielded a fold induction at 33 µM of 820.
